Results published in US20240368560A1, “METHODS OF PRODUCING THREE-DIMENSIONAL CELLULAR TISSUES” (TOPPAN HOLDINGS INC., priority 2022, published 2024).

Key:
Format in all cases: cell-based, human
[1] = test system: three-dimensional cellular tissue (NHDF, HUVEC, HCT15/β2m cells); experiment: Formation of collagen, PSR staining, timing of ascorbic acid addition (Experimental Example 2); conditions: day 7 of culture
Protocol: Preparation of stromal cells, seeding of cancer cells and lamination of stromal cells were performed in the same manner as in Experimental Example 1 except that 2.0×10^6 cells of human neonatal dermal fibroblasts NHDF were seeded, as NHDF, in a square dish (product number “166508”, Nunc) containing 90 mL of general-purpose medium or general-purpose medium containing 0.1 mM ascorbic acid, and cultured in a CO2 incubator (37° C., 5% CO2) for 24 hours.
Then, the medium inside and outside the cell culture insert was removed, and 2.3 mL of general-purpose medium or general-purpose medium containing 0.1 mM ascorbic acid was added, and the cells were cultured in a CO2 incubator (37° C., 5% CO2) for 3 days.
Subsequently, the medium inside and outside the culture insert was removed, and 2.3 mL of general-purpose medium or general-purpose medium containing 0.1 mM ascorbic acid was added, and the cells were cultured in a CO2 incubator (37° C., 5% CO2) for 3 days.
On day 7 of the culture, the three-dimensional cellular tissue was washed twice with PBS, and 300 μL of 10% formalin buffer solution (product number “062-01661”, FUJIFILM Wako Pure Chemical Corporation) was added to the cell culture insert, which was then allowed to stand for 15 minutes or more and washed three times with PBS to fix the three-dimensional cellular tissue. […]

[2] = test system: three-dimensional cellular tissue (NHDF, HUVEC, HCT15/β2m cells); experiment: Bright-field observation of three-dimensional cellular tissue formation (Experimental Example 1); conditions: day 7 of culture; ascorbic acid 0, 0.05 or 0.1 mM; TGF-β 0, 0.1, 1, 5 or 10 ng/mL
Protocol: 1.0×10^6 cells of human neonatal dermal fibroblasts NHDF (product number “CC-2509”, Lonza) and 1.5×10^4 cells of human umbilical vein endothelial cells HUVEC (product number “C2517A”, Lonza) were suspended in a 50 mM tris-HCl buffer solution (pH 7.4) containing 0.1 mg/mL heparin (product number “H3149-100KU”, Sigma) and 0.1 mg/mL collagen (product number “ASC-1-100-100”, Sigma).
Then, the cell suspension was centrifuged at room temperature at 1,000×g (gravitational acceleration) for 2 minutes, and, after removing the supernatant, resuspended in 300 μL of general-purpose medium. Then, the obtained cell suspension was seeded inside a 24-well cell culture insert (product number “3470”, Corning Incorporated) coated with 0.1 mg/mL fibronectin in advance, with 1 mL of general-purpose medium added to the outside.
Then, the cell culture insert was centrifuged at room temperature at 400×g for 2 minutes, and then allowed to stand in a CO2 incubator (37° C., 5% CO2) for 2 hours. Then, 1 mL of general-purpose medium was added to the outside the cell culture insert, and the cells were cultured in a CO2 incubator (37° C., 5% CO2) for 24 hours (the time at which this culture was started is referred to as the culture start time).
The medium outside the cell culture insert was removed, and 1 mL of general-purpose medium was added. […]

[3] = test system: three-dimensional cellular tissue (NHDF, HUVEC, HCT15/β2m cells); experiment: Formation of collagen, PSR staining (Experimental Example 1); conditions: ascorbic acid 0.1 mM, alone or with TGF-β 1 ng/mL
Protocol: The medium inside and outside the above cell culture insert was removed, and 2 mL of general-purpose medium was added, using magnesium ascorbate phosphate (product number “013-12061”, FUJIFILM Wako Pure Chemical Corporation) and TGF-β (product number “209-16544”, FUJIFILM Wako Pure Chemical Corporation), with the ascorbic acid concentration being 0 mM, […], and the cells were cultured in a CO2 incubator (37° C., 5% CO2) for 3 days. Then, the medium inside and outside the culture insert was removed, and 2.3 mL of general-purpose medium was added with the ascorbic acid concentration being 0 mM, […], and the cells were cultured in a CO2 incubator (37° C., 5% CO2) for 3 days. On day 4 and day 7 of the culture, the obtained three-dimensional cellular tissue was washed twice with PBS, and […] of 10% formalin buffer solution (product number “062-01661”, FUJIFILM Wako Pure Chemical Corporation) was added to the cell culture insert, which was then allowed to stand for 15 minutes or more and washed three times with PBS to fix the three-dimensional cellular tissue. Then, the three-dimensional cellular tissue was removed from the cell culture insert, embedded in paraffin, and cut along a line passing through the center of gravity in a direction perpendicular to the top of the three-dimensional cellular tissue (top of the cell culture insert) to prepare a […] thin slice. […]

Molecule	formation of collagen (PSR staining) ([1]; 0.1 mM ascorbic acid added after formation of the three-dimensional cellular tissue)	formation of collagen (PSR staining) ([1]; 0.1 mM ascorbic acid added to NHDF in advance (24 hours before tissue formation))	formation of three-dimensional cellular tissue (microscopic observation) [2]	formation of collagen (PSR staining, PSR ratio) [3]
O=C1O[C@H]([C@@H](O)CO)C(O)=C1O [ascorbic acid]	collagen was found to be formed	no change in formation of collagen	a three-dimensional cellular tissue was formed	fiber-like collagen was formed
TGF-β			the cellular tissue shrunk and became detached from the cell culture insert, and no three-dimensional cellular tissue was formed	
